The source of these data is the NIST ThermoML archive (doi:10.1016/j.fluid.2012.09.019).

Numbers after ± are expanded uncertainties.

The nature of series [1]: refractive index (Na D-line) (dimensionless). The settings on record: 298.15 K; 101.33 kPa; Liquid; Standard Abbe refractometry.
The conditions of series [2]: 298.15 K; 101.33 kPa; Liquid; Vibrating tube method.

Consider `Cc1ccccc1C` [1,2-dimethylbenzene], for which the refractive index (in general, the speed of light in vacuum divided by its phase velocity in the sample) in series [1] came to 1.4945 ± 0.0008. Also, the mass density (as a rule, the mass of a sample divided by its volume) in series [2] is reported as 859.54 ± 0.14 kg/m3.
Turning to `Cc1cccc(C)c1` [1,3-dimethylbenzene], the refractive index in series [1] worked out at 1.4946 ± 0.0008. The mass density in series [2] is given as 859.95 ± 0.14 kg/m3.
As for `Cc1ccc(C)cc1` [1,4-dimethylbenzene], the refractive index in series [1] worked out at 1.4957 ± 0.0008. For the same molecule, the mass density in series [2] was 856.71 ± 0.14 kg/m3.
Turning to `CCCCCCCCCC` [decane], in series [1], the refractive index is 1.4108 ± 0.0008. For the same molecule, the mass density in series [2] turned out to be 726.36 ± 0.17 kg/m3.
